Measurements reported in publication PMC7247683, “Molecular Drug Discovery of Single Ginsenoside Compounds as a Potent Bruton’s Tyrosine Kinase Inhibitor” (International Journal of Molecular Sciences, 2020).
Like-named read-outs stand apart in the source and are kept apart here.

Assays:
[1] = target: T1, BTK (Homo sapiens, UniProt Q06187); assay: Western blotting, p-BTK/BTK in Ramos cells; type: cell-based; conditions: α-IgM stimulated, stimulation (α-IgM antibody (+), DMSO) group as reference (100%)
T1 construct: host or cells: Ramos cells
Protocol: The Ramos cells (~3 × 10^6) were famished of serum for 1 h and treated with ginsenosides for 1 h, and then washed with phosphate-buffered saline (Welgene, Korea), followed by stimulation with 1 μg/mL of goat F(ab’)2 anti-human IgM (Southern Biotech, Birmingham, AL, USA) for 10 min on ice. The cells were then lysed in a radioimmunoprecipitation assay (RIPA) buffer (Sigma-Aldrich, St. Louis, MO, USA) and the proteins were separated by SDS-PAGE (Bio-Rad Laboratories, Hercules, CA, USA) and transferred to polyvinylidene fluoride membranes (EMD Millipore, Billerica, MA, USA). The proteins were detected with anti-BTK Y223 (Cell Signaling Technology, Danvers, MA, USA), anti-BTK (53/BTK, Cell Signaling Technology) and anti-glyceraldehyde 3-phosphate dehydrogenase (anti-GAPDH) (Santa Cruz Biotechnology, Santa Cruz, CA, USA) antibodies. The protein signals were monitored by chemiluminescence using Enhanced ChemiLuminescence (ECL) western blotting detection reagent (EMD Millipore), and the scanned blots were quantified using a Multi-Image analyzer (Fujifilm, Japan). The phosphorylation % of each lane was determined using Multi-Gauge software (Fujifilm). The IC50 value was measured using control α-IgM+ set at 100% and control α-IgM− set at 0%.
The Ramos cells (~3 × 10^6) were cultured in 6-well cell culture plates. Both the control and ginsenoside compounds were dissolved in DMSO. For the Western blotting, the α-IgM- groups and α-IgM+ groups in the presence of DMSO were used as the non-stimulation control and stimulation control, respectively, following by the quantitation of the expression ratio of p-BTK, BTK, and β-tubulin. The expression level of each p-BTK and the expression level of BTK were compared and analyzed using the ratios (p-BTK/β-tubulin and BTK/β-tubulin) based on the expression level of each β-tubulin. Namely, the p-BTK/BTK ratio means the (p-BTK/β-tubulin)/(BTK/β-tubulin) ratio, which is simply expressed as p-BTK/BTK.

[2] = target: T1, BTK; assay: Cell-based phosphorylation ELISA, p-BTK/BTK in Ramos cells; conditions: for BTK inhibitory activity (p-BTK/BTK, ELISA), in words: compared to Ibrutinib or the DMSO-treated group
Excerpt: Although BTK is almost constant in cells, the expression level of p-BTK varies depending on the degree of BTK activation and inhibition, and thus the expression level of p-BTK is based on the expression of BTK (p-BTK/BTK).
When BTK is activated or inhibited, the phosphorylation % of BTK is increased or decreased accordingly, which can be confirmed by the amount of phosphorylated BTK in the cell. After treating the ginsenoside compound on the cells, the amount of BTK inhibition of the ginsenoside compound was compared and analyzed by the amount of phosphorylated BTK in the cell. […] The BTK to GAPDH expression ratio was confirmed.
The Ramos cells (~1 × 10^4) were cultured in 96-well cell culture plates. […] Free DMSO was used as a negative control group. […] The expression level of each p-BTK and the expression level of BTK were compared and analyzed using the ratios (p-BTK/GAPDH and BTK/GAPDH) based on the expression level of each […]. Namely, the p-BTK/BTK ratio means the (p-BTK/GAPDH)/(BTK/GAPDH) ratio, which is simply expressed as p-BTK/BTK.

[3] = Solubility characterization in RPMI medium (absorbance at 540 nm, transparency); type: physicochemical; set-up: key to absorbance at 540 nm increased compared to the control / absorbance at 540 nm decreased compared to the control / absorbance at 540 nm reduced compared to the control: difference in OD at 540 nm vs untreated medium control
Excerpt: In spite of the promising pharmaceutical efficacies of the ginsenoside compounds, the therapeutic potential of ginsenosides is largely restricted by their lowering bioavailability when orally distributed (< 5%) due to their undesirable physicochemical properties, such as low water solubility, low biomembrane permeability, instability in the gastrointestinal fluid, and extensive body metabolism. Depending on the solubility of each candidate substance, the black text under the plate is clearly visible when dissolved well. Since UV/vis absorbance spectra-based turbidimetry has the advantage of being fast and non-destructive in common drug solubility tests, a determination of their turbidity or optical density (OD) in liquid cultures was employed to monitor the water-solubility of the ginsenoside candidates. The λmax of the UV/vis absorbance spectra of the ginsenoside compounds and their Roswell Park Memorial Institute (RPMI) medium were identical at 540 nm, and the difference in OD between the absorbances of the ginsenosides and the media, used only as a control, was plotted (Figure 4). The increased absorbance signals of the PPT and PPD were derived from the increased OD signal of turbidity-based interference by insoluble compounds in the medium. The corresponding UV/vis absorbance results of each candidate substance in the media is discussed as follows:
To determine the concentration of ginsenoside compounds to be treated on the cells, the solubility of each compound in RPMI-1640 medium was evaluated. Specifically, the solubility of each ginsenoside compound was observed by UV/vis absorbance at 540 nm, and the transparency of the medium was measured by the visually observed degree to which the marked black text at the bottom of the plate was visible (transparency of the medium). In addition, the change in absorbance at 540 nm compared to the control was measured by using the medium not treated with the ginsenoside compound as a control.

[4] = target: purified BTK (Homo sapiens, UniProt Q06187); assay: FRET-based kinase assay (Z'-LYTE) for BTK inhibition; type: biochemical; conditions: 0.625 μg/mL purified BTK; for BTK inhibitory effect (inhibition %): 25, 50, and 100 μg/mL, depending on the concentration; for IC50: FRET assay
Protocol: For the identification of the BTK inhibitory activity of ginsenoside-derived candidate substances and the screening of them to show pharmacological efficacy, the BTK-inhibitory activity of ginsenoside compounds and their in vitro BTK inhibitory activity was measured as the inhibition rate (inhibition %) of the decreased phosphorylation rate compared to the BTK activity without ginsenoside treatment in a FRET assay.
In order to evaluate the BTK inhibitory activity of the ginsenoside compound, a kinase assay using a Z’-LYTE Kinase Assay Kit from Thermo Fisher Scientific was performed. A fluorescent microplate reader was used to measure the Fluorescence Resonance Energy Transfer (FRET) between coumarin and fluorescein dyes. The assay was optimized for BTK, as described in the manufacturer’s protocol. The BTK activity (%) was evaluated by measuring the ratio of the emission signal (445 nm/520 nm) according to the phosphorylation % of the substrate by BTK.

[5] = solubility-dependent concentration
[6] = read-out: IC50 levels that inhibited BTK activity

Sequence of purified BTK (Q06187 whole entry): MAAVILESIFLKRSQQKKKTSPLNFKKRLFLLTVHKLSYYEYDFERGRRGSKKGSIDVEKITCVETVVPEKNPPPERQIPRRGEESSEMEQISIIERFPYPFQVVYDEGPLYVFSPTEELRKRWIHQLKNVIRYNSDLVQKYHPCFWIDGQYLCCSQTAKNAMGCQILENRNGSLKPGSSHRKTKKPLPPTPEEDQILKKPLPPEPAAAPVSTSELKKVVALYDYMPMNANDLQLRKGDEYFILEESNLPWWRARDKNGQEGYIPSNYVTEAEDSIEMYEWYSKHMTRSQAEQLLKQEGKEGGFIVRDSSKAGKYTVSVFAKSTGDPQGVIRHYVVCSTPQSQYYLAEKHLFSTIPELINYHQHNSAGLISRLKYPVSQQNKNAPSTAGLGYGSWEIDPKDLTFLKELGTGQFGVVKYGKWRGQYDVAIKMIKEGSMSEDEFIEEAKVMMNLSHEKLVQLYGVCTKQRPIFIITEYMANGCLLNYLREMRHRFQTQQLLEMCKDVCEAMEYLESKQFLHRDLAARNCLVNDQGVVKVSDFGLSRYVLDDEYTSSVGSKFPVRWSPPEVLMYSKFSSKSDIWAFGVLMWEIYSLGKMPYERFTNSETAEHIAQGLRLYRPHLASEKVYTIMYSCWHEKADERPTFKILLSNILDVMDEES
T1 sequence (Q06187 whole entry): as above

Row | Structure (SMILES) | BTK inhibitory activity (p-BTK/BTK, Western blotting) [1] | BTK inhibitory activity (p-BTK/BTK, ELISA) ([2]; at low concentrations) [%] | BTK inhibitory activity (p-BTK/BTK, ELISA), in words [2, 5] | appearance / solubility in the medium [3] | solubility in the medium, overall [3] | absorbance at 540 nm increased compared to the control ([3]; 0.5 mM) | BTK inhibitory effect (inhibition %) [4] [%] | IC50 [4, 6] [µM] | BTK inhibitory activity (p-BTK/BTK, ELISA) [2, 5] [%] | solubility in the medium, overall ([3]; RPMI medium) | also measured
1 | CC(C)=CCCC(C)(O)C1CCC2(C)C1C(O)CC1C3(C)CCC(O)C(C)(C)C3CCC12C (stereo not drawn) [PPD, protopanaxadiol] | about 40% | 9.58 | substantial BTK inhibitory activity | turbid | poorly soluble in the medium at higher concentrations | 0.442 | – | – | – | – | absorbance at 540 nm increased compared to the control ([3]; 0.2 mM): 0.155; absorbance at 540 nm increased compared to the control ([3]; 1 mM): 0.835; absorbance at 540 nm increased compared to the control ([3]; 1.5 mM): 1.153
2 | CC(C)=CCC[C@](C)(O)[C@H]1CC[C@]2(C)[C@@H]1[C@H](O)C[C@@H]1[C@@]3(C)CC[C@H](O)C(C)(C)[C@@H]3[C@@H](O)C[C@]12C [PPT, protopanaxatriol] | about 30% | 15.98 | substantial BTK inhibitory activity | intensively turbid | poorly soluble in the medium at higher concentrations | 0.309 | ≥ 70 | 136 | – | – | absorbance at 540 nm increased compared to the control ([3]; 0.8 mM): 0.508; absorbance at 540 nm increased compared to the control ([3]; 1.7 mM): 1.118
3 | CC(C)=CCCC(C)(OC1OC(COC2OCC(O)C(O)C2O)C(O)C(O)C1O)C1CCC2(C)C1C(O)CC1C3(C)CCC(OC4OC(CO)C(O)C(O)C4OC4OC(CO)C(O)C(O)C4O)C(C)(C)C3CCC12C (stereo not drawn) [Rb2] | ~ 17% | – | substantial BTK inhibitory activity | – | – | – | ≥ 70 | 9.27 | > 23 | soluble in the medium at a high concentration | absorbance at 540 nm increased compared to the control ([3]; 0.2 mM in RPMI medium): 0.042; appearance / solubility in the medium ([3]; 0.2 mM in RPMI medium): transparent; absorbance at 540 nm decreased compared to the control ([3]; 0.6 mM in RPMI medium): 0.007; absorbance at 540 nm decreased compared to the control ([3]; 1.0 mM in RPMI medium): 0.006
4 | CC(C)=CCCC(C)(OC1OC(COC2OCC(O)C(O)C2O)C(O)C(O)C1O)C1CCC2(C)C1C(O)CC1C3(C)CCC(OC4OC(CO)C(O)C(O)C4OC4OC(CO)C(O)C(O)C4O)C(C)(C)C3CCC12C (stereo not drawn) [Rb3] | ~ 17% | – | substantial BTK inhibitory activity | – | – | – | ≥ 70 | 51 | > 23 | soluble in the medium at a high concentration | absorbance at 540 nm increased compared to the control ([3]; 0.9 mM in RPMI medium): 0.047; appearance / solubility in the medium ([3]; 0.9 mM in RPMI medium): transparent; absorbance at 540 nm reduced compared to the control ([3]; 2.7 mM in RPMI medium): 0.004
5 | CC(C)=CCCC(C)(O)C1CCC2(C)C1C(O)CC1C3(C)CCC(OC4OC(CO)C(O)C(O)C4O)C(C)(C)C3CCC12C (stereo not drawn) [Rh2] | – | – | – | – | – | – | ≥ 70 | – | – | soluble in the medium at a low concentration, while insoluble at a high concentration | absorbance at 540 nm increased compared to the control ([3]; 0.4 mM in RPMI medium): 0.037; absorbance at 540 nm increased compared to the control ([3]; 0.6 mM in RPMI medium): 0.111; absorbance at 540 nm increased compared to the control ([3]; 1.2 mM in RPMI medium): 0.271; appearance / solubility in the medium ([3]; 1.2 mM in RPMI medium): slightly soluble; IC50 ([4]; IC50 levels that inhibited BTK activity): 61.1 µM
